From patent publication US9265253B2, “Use of macrocyclic picolinamides as fungicides” (DOW AGROSCIENCES LLC, priority 2013, dated 2016) come the findings set out here.

Type in all cases: in vivo
In experiment [1] the test system is Mycosphaerella graminicola; Anamorph: Septoria tritici. Put plainly: Leaf Blotch of Wheat (SEPTTR) disease control. Conditions: Zymoseptoria tritici; for pest or weed control at 100 ppm: rate 100 ppm. An outline of the steps:
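Yuma wheat, 1st leaf stage; spray to run-off, acetone + 9 vol water/110 ppm Triton X-100; S. tritici spores pre- or post-treatment; dew chamber 100% RH, then greenhouse 20° C. Read: % severity vs untreated → % control.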

In experiment [2] the test system is Puccinia triticina; Synonym: Puccinia recondite f. Sp. Tritici. Kind of experiment: Wheat Brown Rust (PUCCRT) disease control. Conditions: Puccinia triticina, topical; for pest or weed control at 100 ppm: rate 100 ppm. An outline of the steps:
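Brown rust on first-leaf Yuma wheat: spore inoculation before or after spray application (acetone/Triton X-100 solution, or EC with Trycol in track spray), overnight 100% RH at 22 °C, disease developed at 24 °C. Severity scored 0–100% and converted to percent control against untreated.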

The test system of experiment [3] is Blumeria graminis f. sp. hordei; Synonym: Erysiphe graminis f. sp. hordei. Put plainly: Barley Powdery Mildew (ERYSGH) disease control. Conditions: Blumeria graminis, 24 h, 1 Day Protectant, read-out: Disease Control ERYSGH 1 DP. The procedure:
Technical grades of materials were dissolved in acetone, which were then mixed with nine volumes of water containing 110 ppm Triton X-100. The fungicide solutions were applied onto wheat seedlings using an automated booth sprayer to run-off. All sprayed plants were allowed to air dry prior to further handling. All fungicides were evaluated using the aforementioned method for their activity vs. all target diseases. Wheat leaf blotch and brown rust activity were also evaluated using track spray applications, in which case the fungicides were formulated as EC formulations, containing 0.1% Trycol 5941 in the spray solutions. Wheat plants (variety Yuma) were grown from seed in a greenhouse in 50% mineral soil/50% soil-less Metro mix until the first leaf was fully emerged, with 7-10 seedlings per pot. These plants were inoculated with an aqueous spore suspension of Septoria tritici either prior to or after fungicide treatments. After inoculation the plants were kept in 100% relative humidity (one day in a dark dew chamber followed by two to three days in a lighted dew chamber at 20° C.) to permit spores to germinate and infect the leaf. The plants were then transferred to a greenhouse set at 20° C. for disease to develop. When disease symptoms were fully expressed on the 1st leaves of untreated plants, infection levels were assessed on a scale of 0 to 100 percent disease severity. Percent disease control was calculated using the ratio of disease severity on treated plants relative to untreated plants. Barley seedlings (variety Harrington) were propagated in soil-less Metro mix, with each pot having 8 to 12 plants, and used in the test when first leaf was fully emerged. Test plants were inoculated by dusting with infected stock plants 24 hr after fungicide treatments. After inoculation the plants were kept in a greenhouse set at 20° C. for disease to develop. Fungicide formulation, application and disease assessment on the sprayed leaves followed the procedures as described in the Example A.

For the next experiment, the system named is Phakopsora pachyrhizi. Put plainly: Asian Soybean Rust (PHAKPA) disease control. Conditions: Phakopsora pachyrhizi, topical. On the procedure:
Technical grades of materials were dissolved in acetone, which were then mixed with nine volumes of water containing 0.011% Tween 20. The fungicide solutions were applied onto soybean seedlings using an automated booth sprayer to run-off. All sprayed plants were allowed to air dry prior to further handling.
Soybean plants (variety Williams 82) were grown in soil-less Metro mix, with one plant per pot. Two weeks old seedlings were used for testing. Plants were inoculated either 3 days prior to or 1 day after fungicide treatments. Plants were incubated for 24 h in a dark dew room at 22° C. and 100% RH then transferred to a growth room at 23° C. for disease to develop. Disease severity was assessed on the sprayed leaves.

The mark [4] stands for this setting: 24 h, 1 Day Protectant, rate 121.5 g/H, read-out: SEPTTR 1 DP disease control.
Setting [5] is: 72 h, 3 Day Curative, rate 121.5 g/H, read-out: SEPTTR 3 DC disease control.
Where [6] appears, read: 24 h, 1 Day Protectant, rate 121.5 g/H, read-out: PUCCRT 1 DP disease control.
Where [7] appears, read: 72 h, 3 Day Curative, rate 121.5 g/H, read-out: PUCCRT 3 DC disease control.
The mark [8] stands for this setting: 24 h, 1 Day Protectant, read-out: SEPTTR 1 DP disease control.
[9] abbreviates: 72 h, 3 Day Curative, read-out: SEPTTR 3 DC disease control.
Where [10] appears, read: 24 h, 1 Day Protectant, read-out: PUCCRT 1 DP disease control.
Setting [11] is: 72 h, 3 Day Curative, read-out: PUCCRT 3 DC disease control.
The mark [12] stands for this setting: 24 h, 1 Day Protectant, read-out: Disease Control PHAKPA 1DP.
[13] abbreviates: 72 h, 3 Day Curative, read-out: Disease Control PHAKPA 3DC.

Where two headings read alike, the source gives them in different places.

As to `CCO[C@@H]1[C@@H](Cc2ccccc2)CCC[C@H](NC(=O)c2nccc(OC)c2OC(C)=O)C(=O)O[C@H]1C` [Compound F87], the pest or weed control at 121.5 g/ha in experiment [1] (setting [4]), in experiment [1] (setting [5]), in experiment [2] (setting [6]) and in experiment [2] (setting [7]) was 80 to 100% in each case. The pest or weed control at 100 ppm in experiment [3] lay in the range of 80 to 100%.

Consider `CCCO[C@@H]1[C@@H](Cc2ccccc2)CCC[C@H](NC(=O)c2nccc(OC)c2OC(C)=O)C(=O)O[C@H]1C` [Compound F88], for which the pest or weed control at 121.5 g/ha in experiment [1] (setting [4]), in experiment [1] (setting [5]), in experiment [2] (setting [6]) and in experiment [2] (setting [7]) was 80 to 100% throughout. The pest or weed control at 100 ppm in experiment [3] was in the range of 80 to 100%.

As for `COc1ccnc(C(=O)N[C@H]2CCC[C@H](Cc3ccc(F)cc3)[C@@H](OCC(C)C)[C@H](C)OC2=O)c1OCOC(C)=O` [Compound F102], the pest or weed control at 100 ppm was in the range of 80 to 100% in experiment [1] (setting [8]); 80 to 100% in experiment [1] (setting [9]); 80 to 100% in experiment [2] (setting [10]); 80 to 100% in experiment [2] (setting [11]); 0 to 80% in experiment [3]. Also, the pest or weed control at 121.5 g/ha is 80 to 100% in experiment [1] (setting [4]), 80 to 100% in experiment [1] (setting [5]), 80 to 100% in experiment [2] (setting [6]) and 0 to 80% in experiment [2] (setting [7]).

Turning to `COc1ccnc(C(=O)N[C@H]2CCC[C@H](Cc3ccccc3)[C@@H](Oc3ccccc3)[C@H](C)OC2=O)c1OCOC(C)=O` [Compound F108], the pest or weed control at 100 ppm in experiment [1] (setting [8]) lay within 80 to 100%; in experiment [1] (setting [9]), 80 to 100%; in experiment [2] (setting [10]), 80 to 100%; in experiment [2] (setting [11]), 80 to 100%; in experiment [3] it was 0 to 80%. The pest or weed control at 121.5 g/ha in experiment [1] (setting [4]) lay within 80 to 100%; in experiment [1] (setting [5]) it was 80 to 100%; in experiment [2] (setting [6]) it was 80 to 100%; in experiment [2] (setting [7]), 0 to 80%.

Take `COc1ccnc(C(=O)N[C@H]2CCC[C@H](Cc3ccccc3)[C@@H](OC3CCCC3)[C@H](C)OC2=O)c1OCOC(C)=O` [Compound F110]: the pest or weed control at 100 ppm in experiment [1] (setting [8]), in experiment [1] (setting [9]), in experiment [2] (setting [10]), in experiment [2] (setting [11]) and in experiment [3] was 80 to 100% in each case. For the same molecule, the pest or weed control at 121.5 g/ha in experiment [1] (setting [4]), in experiment [1] (setting [5]), in experiment [2] (setting [6]) and in experiment [2] (setting [7]) was 80 to 100% each time.

In the case of `COc1ccc(C[C@H]2CCC[C@H](NC(=O)c3nccc(OC)c3OCOC(C)=O)C(=O)O[C@@H](C)[C@@H]2Oc2ccccc2)cc1` [Compound F114], the pest or weed control at 100 ppm in experiment [1] (setting [8]), in experiment [1] (setting [9]), in experiment [2] (setting [10]) and in experiment [2] (setting [11]) was 80 to 100% in each case. Besides, the pest or weed control at 121.5 g/ha in experiment [1] (setting [4]) was 80 to 100%; in experiment [1] (setting [5]), 80 to 100%; in experiment [2] (setting [6]) it was 80 to 100%; in experiment [2] (setting [7]) it was 0 to 80%.

For the molecule `COc1ccc(C[C@H]2CCC[C@H](NC(=O)c3nccc(OC)c3OCOC(C)=O)C(=O)O[C@@H](C)[C@@H]2OCC(C)C)cc1` [Compound F118], the pest or weed control at 100 ppm in experiment [1] (setting [8]), in experiment [1] (setting [9]), in experiment [2] (setting [10]) and in experiment [2] (setting [11]) was 80 to 100% in each case. For the same molecule, the pest or weed control at 121.5 g/ha in experiment [1] (setting [4]), in experiment [1] (setting [5]), in experiment [2] (setting [6]) and in experiment [2] (setting [7]) was 80 to 100% in each case. Also, the pest or weed control at 25 ppm with Phakopsora pachyrhizi (setting [12]) lay within 80 to 100%; in the experiment on Phakopsora pachyrhizi (setting [13]) it was 0 to 80%.

In the case of `CCCO[C@@H]1[C@@H](Cc2ccc(OC)cc2)CCC[C@H](NC(=O)c2nccc(OC)c2OCOC(C)=O)C(=O)O[C@H]1C` [Compound F119], the pest or weed control at 100 ppm in experiment [1] (setting [8]), in experiment [1] (setting [9]), in experiment [2] (setting [10]) and in experiment [2] (setting [11]) was 80 to 100% in each case. Further, the pest or weed control at 121.5 g/ha in experiment [1] (setting [4]), in experiment [1] (setting [5]), in experiment [2] (setting [6]) and in experiment [2] (setting [7]) was 80 to 100% each time. The pest or weed control at 25 ppm with Phakopsora pachyrhizi (setting [12]) lay in the range of 80 to 100%; in the experiment on Phakopsora pachyrhizi (setting [13]) it was 0 to 80%.

Regarding `COc1ccnc(C(=O)N[C@H]2CCC[C@H](Cc3ccc(C)cc3)[C@@H](OCC(C)C)[C@H](C)OC2=O)c1OCOC(C)=O` [Compound F126], the pest or weed control at 100 ppm in experiment [1] (setting [8]), in experiment [1] (setting [9]), in experiment [2] (setting [10]) and in experiment [2] (setting [11]) was 80 to 100% each time. Moreover, the pest or weed control at 121.5 g/ha lay in the range of 80 to 100% in experiment [1] (setting [4]), 80 to 100% in experiment [1] (setting [5]), 80 to 100% in experiment [2] (setting [6]) and 0 to 80% in experiment [2] (setting [7]).

For the molecule `COc1ccnc(C(=O)N[C@H]2CCC[C@H](Cc3ccc(F)cc3F)[C@@H](OC(=O)c3ccco3)[C@H](C)OC2=O)c1OCOC(C)=O` [Compound F144], the pest or weed control at 121.5 g/ha lay in the range of 80 to 100% in experiment [1] (setting [4]), 0 to 80% in experiment [1] (setting [5]) and 80 to 100% in experiment [2] (setting [6]). Also, in the experiment with Phakopsora pachyrhizi (setting [12]), the pest or weed control at 25 ppm was 0 to 80%.

Regarding `COc1ccnc(C(=O)N[C@H]2CCC[C@H](Cc3ccc(F)cc3F)[C@@H](OC(=O)c3ccco3)[C@H](C)OC2=O)c1OCOC(=O)C(C)C` [Compound F157], the values for the pest or weed control at 121.5 g/ha in experiment [1] (setting [4]), in experiment [2] (setting [6]) and in experiment [2] (setting [7]) were 80 to 100%, 80 to 100% and 0 to 80%, respectively. Besides, in the experiment with Phakopsora pachyrhizi (setting [12]), the pest or weed control at 25 ppm lay within 0 to 80%.

For the molecule `CCOCC(=O)OCOc1c(OC)ccnc1C(=O)N[C@H]1CCC[C@H](CC2CCCCC2)[C@@H](OCC(C)C)[C@H](C)OC1=O` [Compound F175], the pest or weed control at 100 ppm in experiment [1] (setting [8]), in experiment [1] (setting [9]), in experiment [2] (setting [10]), in experiment [2] (setting [11]) and in experiment [3] was 80 to 100% throughout. In addition, the pest or weed control at 121.5 g/ha in experiment [1] (setting [4]) was 80 to 100%; in experiment [1] (setting [5]), 0 to 80%; in experiment [2] (setting [6]), 80 to 100%; in experiment [2] (setting [7]), 0 to 80%.

Consider `CCCO[C@@H]1[C@@H](Cc2ccccc2)CCC[C@H](NC(=O)c2nccc(OC)c2OC(=O)CCOC)C(=O)O[C@H]1C` [Compound F198], for which the pest or weed control at 121.5 g/ha was 80 to 100% in experiment [1] (24 h, Wheat Leaf Blotch, 1 Day Protectant, rate 121.5 g/H (low volume application), read-out: Disease control SEPTTR 1 DP); 80 to 100% in experiment [1] (72 h, Wheat Leaf Blotch, 3 Day Curative, rate 121.5 g/H (low volume application), read-out: Disease control SEPTTR 3 DC); 80 to 100% in experiment [2] (24 h, Wheat Brown Rust, 1 Day Protectant, rate 121.5 g/H (low volume application), read-out: Disease control PUCCRT 1 DP); 80 to 100% in experiment [2] (72 h, Wheat Brown Rust, 3 Day Curative, rate 121.5 g/H (low volume application), read-out: Disease control PUCCRT 3 DC). For the same molecule, the pest or weed control at 100 ppm in experiment [3] was 80 to 100%.
